The target of the assay is T1, human protease activated receptor 1 (PAR-1) (Homo sapiens, UniProt P25116).
T1 construct: the cell stably expresses the endogenous human PAR-1 receptor; endogenous in cells; host or cells: HEK293-derived recombinant cell line expressing mitochondrial aequorin
T1 sequence (P25116 22-425): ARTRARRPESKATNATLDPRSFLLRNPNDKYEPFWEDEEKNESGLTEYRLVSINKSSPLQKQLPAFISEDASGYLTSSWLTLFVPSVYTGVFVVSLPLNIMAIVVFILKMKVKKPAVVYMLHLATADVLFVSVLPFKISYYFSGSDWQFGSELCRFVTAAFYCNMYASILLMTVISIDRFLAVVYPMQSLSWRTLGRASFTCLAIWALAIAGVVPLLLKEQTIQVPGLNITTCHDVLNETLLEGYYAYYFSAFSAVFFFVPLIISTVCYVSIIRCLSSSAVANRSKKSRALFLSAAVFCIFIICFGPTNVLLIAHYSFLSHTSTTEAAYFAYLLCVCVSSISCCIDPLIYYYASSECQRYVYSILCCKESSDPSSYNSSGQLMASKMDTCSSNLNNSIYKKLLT
Briefly: Cellular functional in vitro test (PAR-1 antagonism, aequorin luminescence calcium readout). The note with it: recombinant HEK293-derived aequorin cell line with endogenous PAR-1; PAR-1 agonist added at its EC50, 5 min after test substance. The format is cell-based. An excerpt: A recombinant cell line is used to identify antagonists of the human protease activated receptor 1 (PAR-1) and to quantify the activity of the substances described herein. The cell is originally derived from a human embryonal kidney cell (HEK293; ATCC: American Type Culture Collection, Manassas, Va. 20108, USA). The test cell line constitutively expresses a modified form of the calcium-sensitive photoprotein aequorin which, after reconstitution with the cofactor coelenterazine, emits light when the free calcium concentration in the inner mitochondrial compartment is increased (Rizzuto R, Simpson A W, Brini M, Pozzan T.; Nature 1992, 358, 325-327). Additionally, the cell stably expresses the endogenous human PAR-1 receptor and the endogenous purinergic receptor P2Y2. The resulting PAR-1 test cell responds to stimulation of the endogenous PAR-1 or P2Y2 receptor with an intracellular release of calcium ions, which can be quantified through the resulting aequorin luminescence with a suitable luminometer (Milligan G, Marshall F, Rees S, Trends in Pharmacological Sciences 1996, 17, 235-237).
For the testing of the substance specificity, the effect thereof after activation of the endogenous PAR-1 receptor is compared with the effect after activation of the endogenous purinergic P2Y2 receptor which utilizes the same intracellular signal path.
Test procedure: The cells are plated out two days (48 h) before the test in culture medium (DMEM F12, supplemented with 10% FCS, 2 mM glutamine, 20 mM HEPES, 1.4 mM pyruvate, 0.1 mg/ml gentamycin, 0.15% Na bicarbonate; BioWhittaker Cat.# BE04-687Q; B-4800 Verviers, Belgium) in 384-well microtitre plates and kept in a cell incubator (96% atmospheric humidity, 5% v/v CO2, 37° C.). On the day of the test, the culture medium is replaced by a tyrode solution (in mM: 140 sodium chloride, 5 potassium chloride, 1 magnesium chloride, 2 calcium chloride, 20 glucose, 20 HEPES), which additionally contains the cofactor coelenterazine (25 μM) and glutathione (4 mM), and the microtitre plate is then incubated for a further 3-4 hours. The test substances are then pipetted onto the microtitre plate, and 5 minutes after the transfer of the test substances into the wells of the microtitre plate the plate is transferred into the luminometer, a PAR-1 agonist concentration which corresponds to EC50 is added and the resulting light signal is immediately measured in the luminometer. To distinguish an antagonist substance action from a toxic action, the endogenous purinergic receptor is immediately subsequently activated with agonist (ATP, final concentration 10 μM) and the resulting light signal is measured.

With `CC(C)(C)C(=O)NCC1CC(c2ccc(C(F)(F)F)cc2)CN(C(=O)N2CCOCC2)C1` (racemic) [Example 1, 2,2-Dimethyl-N-({1-(morpholin-4-ylcarbonyl)-5-[4-(trifluoromethyl)phenyl]piperidin-3-yl}methyl)propaneamide], the 50% inhibitory concentration (IC50) worked out at 177 nM.

For the compound `O=C(CC1CC(c2ccc(C(F)(F)F)cc2)CN(C(=O)N2CCOCC2)C1)Nc1ccccc1` (racemic) [Example 15, 2-{1-(Morpholin-4-ylcarbonyl)-5-[4-(trifluoromethyl)phenyl]piperidin-3-yl}-N-phenylacetamide], the IC50 was 56 nM.

As for `O=C(N1CCOCC1)N1CC(CSc2cccc(F)c2)CC(c2ccc(C(F)(F)F)cc2)C1` (racemic) [Example 40, (3-{[(3-Fluorophenyl)sulphanyl]methyl}-5-[4-(trifluoromethyl)phenyl]piperidin-1-yl)(morpholin-4-yl)methanone], the half-inhibitory concentration (IC50) stood at 3 nM.

Regarding `O=C(N1CCOCC1)N1CC(CS(=O)(=O)C2CCCC2)CC(c2ccc(C(F)(F)F)cc2)C1` (racemic) [Example 48, {3-[(Cyclopentylsulphonyl)methyl]-5-[4-(trifluoromethyl)phenyl]piperidin-1-yl}(morpholin-4-yl)methanone], the IC50 is 24 nM.

As for `CS(=O)(=O)NCC1CC(c2ccc(C(F)(F)F)cc2)CN(C(=O)N2CCOCC2)C1` (single isomer, unassigned) [Example 6, N-({1-(Morpholin-4-ylcarbonyl)-5-[4-(trifluoromethyl)phenyl]piperidin-3-yl}methyl)methanesulphonamide], the IC50 was found to be 8 nM.

The values above are taken from patent publication US20120149694A1, “Substituted piperidines” (BAYER PHARMA AKTIENGESELLSCHAFT, priority 2009, published 2012).
